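Compound exposure: 48 hours, 5 concentrations, 96-well plates. At the GI50, growth is halved. TGI is the concentration that stops growth completely.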
What was measured:
Assay in all cases: growth of human tumour cells (NCI), 48 h
[1] = tested on: 786-0 renal
[2] = tested on: A498 renal
[3] = tested on: A549 NSCLC
[4] = tested on: ACHN renal
[5] = tested on: BT-549 breast
[6] = tested on: CCRF-CEM leukemia
[7] = tested on: COLO 205 colon
[8] = tested on: DU-145 prostate
[9] = tested on: EKVX NSCLC
[10] = tested on: HCC-2998 colon
[11] = tested on: HCT-116 colon
[12] = tested on: HCT-15 colon
[13] = tested on: HL-60(TB) leukemia
[14] = tested on: HOP-62 NSCLC
[15] = tested on: HOP-92 NSCLC
[16] = tested on: HS 578T breast
[17] = tested on: HT29 colon
[18] = tested on: IGROV1 ovarian
[19] = tested on: K-562 leukemia
[20] = tested on: KM12 colon
[21] = tested on: LOX IMVI melanoma
[22] = tested on: M14 melanoma
[23] = tested on: MALME-3M melanoma
[24] = tested on: MCF7 breast
[25] = tested on: MDA-MB-231 breast
[26] = tested on: MDA-MB-435
[27] = tested on: MOLT-4 leukemia
[28] = tested on: NCI-H226 lung
[29] = tested on: NCI-H23 lung
[30] = tested on: NCI-H460 lung
[31] = tested on: NCI-H522 lung
[32] = tested on: NCI/ADR-RES ovarian
[33] = tested on: OVCAR-3 ovarian
[34] = tested on: OVCAR-4 ovarian
[35] = tested on: OVCAR-5 ovarian
[36] = tested on: OVCAR-8 ovarian
[37] = tested on: PC-3 prostate
[38] = tested on: RPMI-8226 leukemia
[39] = tested on: RXF 393 renal
[40] = tested on: SF-268 CNS
[41] = tested on: SF-295 CNS
[42] = tested on: SF-539 CNS
[43] = tested on: SK-MEL-2 melanoma
[44] = tested on: SK-MEL-28 melanoma
[45] = tested on: SK-MEL-5 melanoma
[46] = tested on: SK-OV-3 ovarian
[47] = tested on: SN12C renal
[48] = tested on: SNB-19 CNS
[49] = tested on: SNB-75 CNS
[50] = tested on: SR leukemia
[51] = tested on: SW-620 colon
[52] = tested on: T-47D breast
[53] = tested on: TK-10 renal
[54] = tested on: U251 CNS
[55] = tested on: UACC-257 melanoma
[56] = tested on: UACC-62 melanoma
[57] = tested on: UO-31 renal
[58] = tested on: CAKI-1 renal

CCCCCC(=O)Oc1ccc(/C(=C(\C)c2ccc(OC)cc2)c2ccc(OCCN3CCCCC3)cc2)cc1
GI50 [1]: 1.98 µM
TGI [1]: 5.61 µM
GI50 [2]: 13.5 µM
TGI [2]: 26.5 µM
GI50 [3]: 10.1 µM
TGI [3]: 22.4 µM
GI50 [4]: 10.7 µM
TGI [4]: 22.6 µM
GI50 [5]: 10.7 µM
TGI [5]: 23.2 µM
GI50 [6]: 4.2 µM
TGI [6]: 31.8 µM
GI50 [7]: 2.02 µM
TGI [7]: 4.55 µM
GI50 [8]: 13.5 µM
TGI [8]: 26.6 µM
GI50 [9]: 9.92 µM
TGI [9]: 22.7 µM
GI50 [10]: 12.5 µM
TGI [10]: 25.5 µM
GI50 [11]: 7.36 µM
TGI [11]: 20.5 µM
GI50 [12]: 2.92 µM
TGI [12]: 10.2 µM
GI50 [13]: 3.98 µM
TGI [13]: 17.8 µM
GI50 [14]: 5.73 µM
TGI [14]: 19.8 µM
GI50 [15]: 3.83 µM
TGI [15]: 17 µM
GI50 [16]: 4.76 µM
TGI [16]: 25.1 µM
GI50 [17]: 3.36 µM
TGI [17]: 13.4 µM
GI50 [18]: 10.4 µM
TGI [18]: 25.9 µM
GI50 [19]: 3.16 µM
TGI [19]: 16.2 µM
GI50 [20]: 8.83 µM
TGI [20]: 27 µM
GI50 [21]: 2.19 µM
TGI [21]: 5.22 µM
GI50 [22]: 2.02 µM
TGI [22]: 4.37 µM
GI50 [23]: 2.84 µM
TGI [23]: 10.4 µM
GI50 [24]: 0.726 µM
TGI [24]: 14.4 µM
GI50 [25]: 9.32 µM
TGI [25]: 21.9 µM
GI50 [26]: 7.93 µM
TGI [26]: 20.7 µM
GI50 [27]: 3.54 µM
TGI [27]: 18.8 µM
GI50 [28]: 17.3 µM
TGI [28]: 38.4 µM
GI50 [29]: 10.1 µM
TGI [29]: 23.8 µM
GI50 [30]: 4.42 µM
TGI [30]: 15.8 µM
GI50 [31]: 14.4 µM
TGI [31]: 30.5 µM
GI50 [32]: 11 µM
TGI [32]: 26.1 µM
GI50 [33]: 11.6 µM
TGI [33]: 25.2 µM
GI50 [34]: 4.95 µM
TGI [34]: 18.5 µM
GI50 [35]: 12.7 µM
TGI [35]: 27 µM
GI50 [36]: 12.8 µM
TGI [36]: 29.6 µM
GI50 [37]: 5.65 µM
TGI [37]: 18.7 µM
GI50 [38]: 3.24 µM
GI50 [39]: 1.8 µM
TGI [39]: 9.52 µM
GI50 [40]: 11.6 µM
TGI [40]: 26.9 µM
GI50 [41]: 2.28 µM
TGI [41]: 6.32 µM
GI50 [42]: 3.56 µM
TGI [42]: 14 µM
GI50 [43]: 10.5 µM
TGI [43]: 23.8 µM
GI50 [44]: 3.6 µM
TGI [44]: 12.8 µM
GI50 [45]: 1.8 µM
TGI [45]: 3.57 µM
GI50 [46]: 10.6 µM
TGI [46]: 22.7 µM
GI50 [47]: 10.8 µM
TGI [47]: 23.5 µM
GI50 [48]: 11.4 µM
TGI [48]: 24.8 µM
GI50 [49]: 10.2 µM
TGI [49]: 26.3 µM
GI50 [50]: 2.71 µM
TGI [50]: 22.2 µM
GI50 [51]: 3.59 µM
TGI [51]: 14 µM
GI50 [52]: 2 µM
TGI [52]: 16.5 µM
GI50 [53]: 17.5 µM
TGI [53]: 31.8 µM
GI50 [54]: 5.13 µM
TGI [54]: 17.6 µM
GI50 [55]: 2.31 µM
TGI [55]: 5.83 µM
GI50 [56]: 7.19 µM
TGI [56]: 20 µM
GI50 [57]: 3 µM
TGI [57]: 14.4 µM

CCN(CCO)CCNc1ccc(C)c2sc3cc(Cl)ccc3c(=O)c12
GI50 [1]: 1.41 µM
TGI [1]: 2.84 µM
GI50 [3]: 1.73 µM
TGI [3]: 3.28 µM
GI50 [4]: 1.61 µM
TGI [4]: 3.19 µM
GI50 [5]: 3.78 µM
TGI [5]: 14 µM
GI50 [58]: 1.72 µM
TGI [58]: 4.03 µM
GI50 [6]: 1.52 µM
TGI [6]: 3.46 µM
GI50 [7]: 1.14 µM
TGI [7]: 2.62 µM
GI50 [8]: 1.57 µM
TGI [8]: 2.94 µM
GI50 [9]: 1.62 µM
TGI [9]: 3.18 µM
GI50 [10]: 1.51 µM
TGI [10]: 3.14 µM
GI50 [11]: 1.34 µM
TGI [11]: 2.72 µM
GI50 [12]: 0.538 µM
TGI [12]: 1.85 µM
GI50 [13]: 1.56 µM
TGI [13]: 3.55 µM
GI50 [14]: 1.5 µM
TGI [14]: 2.95 µM
GI50 [15]: 1.56 µM
TGI [15]: 8.94 µM
GI50 [16]: 1.76 µM
TGI [16]: 4.46 µM
GI50 [17]: 1.28 µM
TGI [17]: 2.62 µM
GI50 [18]: 1.64 µM
TGI [18]: 3.39 µM
GI50 [19]: 0.32 µM
TGI [19]: 1.42 µM
GI50 [20]: 1.67 µM
TGI [20]: 3.36 µM
GI50 [21]: 1.59 µM
TGI [21]: 3.06 µM
GI50 [22]: 1.64 µM
TGI [22]: 3.23 µM
GI50 [23]: 1.86 µM
TGI [23]: 3.51 µM
GI50 [24]: 1.21 µM
TGI [24]: 2.78 µM
GI50 [25]: 0.783 µM
TGI [25]: 2.24 µM
GI50 [26]: 0.891 µM
TGI [26]: 2.26 µM
GI50 [27]: 1.27 µM
TGI [27]: 3.01 µM
GI50 [28]: 1.39 µM
TGI [28]: 3.12 µM
GI50 [29]: 1.63 µM
TGI [29]: 3.45 µM
GI50 [30]: 1.41 µM
TGI [30]: 3.03 µM
GI50 [31]: 1.56 µM
TGI [31]: 3.21 µM
GI50 [32]: 1.49 µM
TGI [32]: 3.11 µM
GI50 [33]: 1.72 µM
TGI [33]: 4.13 µM
GI50 [34]: 2.18 µM
TGI [34]: 5.15 µM
GI50 [35]: 1.59 µM
TGI [35]: 3.3 µM
GI50 [36]: 1.78 µM
TGI [36]: 3.38 µM
GI50 [37]: 1.34 µM
TGI [37]: 2.94 µM
GI50 [38]: 1.86 µM
TGI [38]: 4.6 µM
GI50 [39]: 0.738 µM
TGI [39]: 2.2 µM
GI50 [40]: 1.44 µM
TGI [40]: 3.04 µM
GI50 [41]: 1.61 µM
TGI [41]: 3.19 µM
GI50 [42]: 1.73 µM
TGI [42]: 3.43 µM
GI50 [43]: 1.78 µM
TGI [43]: 3.56 µM
GI50 [44]: 1.64 µM
TGI [44]: 3.23 µM
GI50 [45]: 1.54 µM
TGI [45]: 2.88 µM
GI50 [46]: 1.61 µM
TGI [46]: 3.09 µM
GI50 [47]: 1.47 µM
TGI [47]: 3.11 µM
GI50 [48]: 1.58 µM
TGI [48]: 3.17 µM
GI50 [49]: 1.97 µM
TGI [49]: 5.44 µM
GI50 [50]: 0.751 µM
TGI [50]: 2.78 µM
GI50 [51]: 1.27 µM
TGI [51]: 2.77 µM
GI50 [52]: 1.91 µM
TGI [52]: 3.96 µM
GI50 [53]: 1.8 µM
TGI [53]: 3.31 µM
GI50 [54]: 1.4 µM
TGI [54]: 2.79 µM
GI50 [55]: 1.97 µM
TGI [55]: 3.55 µM
GI50 [56]: 1.73 µM
TGI [56]: 3.31 µM
GI50 [57]: 1.1 µM
TGI [57]: 2.4 µM

From PubChem BioAssay (NCI)
